Results taken from US8143212B2 (Vicuron Pharmaceuticals Inc., priority 2002, dated 2012).
Converted amounts (≈) assume the structure as drawn. Where two headings read alike, the source gives them in different places.

Key:
S. aureus = test: MIC by NCCLS microdilution of study organisms (Table 29); format: cell-based
Procedure: (§1) MICs were determined in MHB by standard NCCLS microdilution techniques. […] All MICs were performed at least in duplicate.

S. pneumoniae = test: as above; format: cell-based; conditions: Streptococcus pneumoniae
Procedure: as §1

[1] = Staphylococcus aureus, MRSA, S. aureus strain MRSA
[2] = Staphylococcus aureus, S. aureus strain Smith

CN[C@H]1C(=O)N[C@@H]2Cc3ccc(cc3)Oc3cc4cc(c3O[C@@H]3O[C@H](C(=O)O)[C@@H](O)[C@H](O)[C@H]3NC(=O)CCCCCCCCC(C)C)Oc3ccc(cc3Cl)[C@@H](O)[C@@H]3NC(=O)[C@H](NC(=O)[C@@H]4NC(=O)[C@@H](NC2=O)c2cc(cc(O)c2Cl)Oc2cc1ccc2O)c1ccc(O)c(c1)-c1c(O[C@H]2O[C@H](CO)[C@@H](O)[C@H](O)[C@@H]2O)cc(O)cc1[C@@H](C(=O)NCCCN(C)C)NC3=O [Dalbavancin]
MBC (S. aureus; S. aureus strain 25923): 0.25 µg/mL (≈ 0.138 µM) | MIC (S. aureus; S. aureus strain MRSA): 0.06 µg/mL (≈ 0.033 µM) | MBC (S. aureus; S. aureus strain Smith): 0.25 µg/mL (≈ 0.138 µM) | MIC (S. aureus; S. aureus strain Smith): 0.12 µg/mL (≈ 0.0661 µM) | MBC (S. aureus; [1]): 0.25 µg/mL (≈ 0.138 µM) | MIC (S. aureus; [1]): 0.12 µg/mL (≈ 0.0661 µM) | MBC (S. aureus; Staphylococcus aureus, S. aureus strain 25923): 0.5 µg/mL (≈ 0.275 µM) | MIC (S. aureus; Staphylococcus aureus, S. aureus strain 31005): 0.06 µg/mL (≈ 0.033 µM) | MBC (S. aureus; Staphylococcus aureus, S. aureus strain 33591): 0.25 µg/mL (≈ 0.138 µM) | MIC (S. aureus; Staphylococcus aureus, S. aureus strain 307109): 0.06 µg/mL (≈ 0.033 µM) | MBC (S. aureus; [2]): 0.5 µg/mL (≈ 0.275 µM) | MIC (S. aureus; [2]): 0.06 µg/mL (≈ 0.033 µM) | MIC (S. aureus; Staphylococcus aureus, read-out: MICs, six S. aureus isolates): 0.06 to 0.12 µg/mL (≈ 0.033 to 0.0661 µM) | MIC (S. pneumoniae; S. pneumoniae SP1396): 0.008 µg/mL (≈ 0.0044 µM) | MIC (S. pneumoniae; S. pneumoniae strain 1199, read-out: MIC): 0.004 µg/mL (≈ 0.0022 µM) | MIC (S. pneumoniae; S. pneumoniae strain 1293, read-out: MIC): 0.004 µg/mL (≈ 0.0022 µM) | MIC (S. pneumoniae; S. pneumoniae strain 1325, read-out: MIC): 0.008 µg/mL (≈ 0.0044 µM) | MIC (S. pneumoniae; S. pneumoniae strain 1329, read-out: MIC): 0.008 µg/mL (≈ 0.0044 µM) | MIC (S. pneumoniae; S. pneumoniae strain 10813, read-out: MIC): 0.03 µg/mL (≈ 0.0165 µM) | MIC (S. pneumoniae; five pneumococcal organisms, read-out: MICs): 0.004 to 0.03 µg/mL (≈ 0.0022 to 0.0165 µM)
